Data on two compounds can be found in publication PMC12074917, “Molecular pharmacokinetic mechanism of JBP485 against aristolochic acid I (AAI) -induced nephrotoxicity” (Frontiers in Pharmacology, 2025).

The nature of series [1]: In vivo renal clearance / pharmacokinetics of AAI after intravenous administration with or without JBP485. The arrangement: species or system rat. Particulars: rats, i.v. The procedure: Rats were randomly assigned to an AAI (4 mg/kg) group or an AAI (4 mg/kg) + JBP485 (50 mg/kg) group (n = 5 per group). The drugs were diluted in normal saline and administered intravenously via the left jugular vein. Subsequently, blood samples (0.2 mL) were collected via the right jugular vein with heparinized syringes at 1, 3, 5, 10, 30, 60, 120, 240, 360, and 480 min post-treatment. Isotonic saline solution (0.2 mL) was injected after each blood sample collection. Urine was collected directly from the bladder at 2, 4, 6, and 8 h after drug administration. AAI concentrations were measured by LC–MS/MS. Pharmacokinetic parameters, renal clearance (CLR), and cumulative urinary excretion were calculated.
(§1) The concentrations of the test compounds in plasma, urine, and cell lysates were determined using an Agilent HP1200 liquid chromatography system (Agilent Technology Inc., SC, CA, United States) and an API 3200 triple-quadrupole mass spectrometer (Applied Biosystems, SC, CA, United States). After protein precipitation using acetonitrile, the analyte was separated on a Hypersil BDS C18 column. The mobile phase consisted of acetonitrile and water containing 0.1% (v/v) formic acid (80:20, v/v). The flow rate was 0.4 mL/min. The mass spectrometer was equipped with an electrospray ionization (ESI) source. Data were acquired in positive ion mode and dynamic multiple reaction monitoring (MRM) mode. The ESI source conditions were as follows: ion spray voltage, 5.5 kV; ion source temperature, 600°C; Gas source 1 (GS1, N2) pressure, 50 psi; Gas source 2 (GS2, N2) pressure, 60 psi; curtain gas (CUR) pressure, 12 psi; and collision gas (CAD) pressure, 10 psi. EP and CXP were set at […] for all analytes. The scan range was m/z 359.9→298.1 for AAI and m/z 130.0→71.2 for IS (Internal Standard, metformin). […] Intra- and inter-day precision was lower than 4.5% with reference to relative standard deviation, while accuracy was within ±6.5% in terms of relative error for analytes. Analyst software (version 1.4.1) was used for equipment control and data acquisition and analysis.

In the next series the target is T1, hOAT3 (Homo sapiens, UniProt Q8TCC7).
T1 construct: expressed in transfected cells; host or cells: HEK293
T1 sequence (Q8TCC7 1-542): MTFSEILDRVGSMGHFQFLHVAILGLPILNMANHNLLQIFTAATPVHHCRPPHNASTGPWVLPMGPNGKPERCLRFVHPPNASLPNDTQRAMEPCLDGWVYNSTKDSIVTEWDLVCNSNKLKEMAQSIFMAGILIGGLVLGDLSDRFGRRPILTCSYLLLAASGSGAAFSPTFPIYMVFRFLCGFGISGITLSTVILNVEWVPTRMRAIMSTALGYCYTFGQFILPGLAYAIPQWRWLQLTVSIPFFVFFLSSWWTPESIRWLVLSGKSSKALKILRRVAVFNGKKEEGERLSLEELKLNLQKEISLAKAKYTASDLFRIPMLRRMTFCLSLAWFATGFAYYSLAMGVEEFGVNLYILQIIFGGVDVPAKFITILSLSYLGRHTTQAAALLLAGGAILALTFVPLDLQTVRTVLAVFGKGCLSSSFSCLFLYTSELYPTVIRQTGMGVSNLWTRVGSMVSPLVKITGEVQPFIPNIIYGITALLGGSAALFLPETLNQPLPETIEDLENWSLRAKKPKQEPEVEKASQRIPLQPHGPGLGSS
The experiment in a line: Uptake of AAI by hOAT3-transfected HEK293 cells with or without JBP485. Format: cell-based. The method, then:
Uptake experiments with hOAT1/3-HEK293 cells were performed as previously described ([Zhu et al., 2020]). Uptake was initiated by adding transport buffer (1 mL) with AAI (1 μM) and/or JBP485 (500 μM) after the cells were washed twice and incubated with transport buffer at 37°C. Moreover, the concentration-dependent uptake of AAI and the effects of JBP485 on AAI uptake were examined. Uptake was terminated upon the removal of the medium. The cells were washed three times with 1 mL of ice-cold Hanks’ balanced salt solution, lysed with 0.3 mL of 0.1% (v/v) Triton X-100, and then transferred to a polythene tube for quantification by LC-MS/MS. The protein level was measured using the BCA method (Solarbio, Beijing, China) with bovine serum albumin serving as the standard.
as §1

Setting [2] is: AAI 4 mg/kg with or without JBP485 50 mg/kg, n = 5.

With `O=C1N[C@@H](CO)C(=O)N2C[C@H](O)C[C@@H]12` (relative stereo) [JBP485, cyclo-trans-4-L-hydroxyprolyl-L-serine], the “cumulative urinary excretion of AAI over 8 h” value in series [1] (co-treatment with JBP485 50 mg/kg vs AAI 4 mg/kg alone) is “reduction”. Further, in series [1] (concurrent JBP485 50 mg/kg vs AAI 4 mg/kg alone), the AAI plasma concentrations entry is listed as “significantly increased”. Moreover, the “type of inhibition of AAI uptake” value on hOAT3 (hOAT3-HEK293 cells, Km increased, Vmax unchanged) is reported as “competitive inhibition”. Moreover, the IC50 on hOAT3 (hOAT3-transfected HEK293 cells, substrate AAI, read-out: IC50 of inhibition of AAI uptake, OAT3) came to 91 ± 10.3 µM.
For `COc1cccc2c1cc([N+](=O)[O-])c1c(C(=O)O)cc3c(c12)OCO3` [AAI, Aristolochic Acid I], in series [1] (setting [2]), the “AUC0-∞ of AAI” value came to 536.2 ± 14.3 µg·min/L, the “AUC(0-t) of AAI” value was 496.0 ± 14.5 µg·min/L, the “CLR (renal clearance) of AAI” value is 74.4 ± 5.4 L/h/kg and the “CLp (plasma clearance) of AAI” value was determined as 450 ± 12 L/h/kg. Further, in series [1] (setting [2]), the “Vd of AAI” value came to 232.9 ± 13.0 L/kg and the “t1/2β of AAI” value is 1.61 ± 0.107 h. Further, the Km on hOAT3 (hOAT3-HEK293 cells, with or without JBP485, Eadie-Hofstee, n = 3) was 30.6 ± 1.2 µM. Moreover, on hOAT3 (hOAT3-HEK293 cells, with or without JBP485, n = 3), the “Vmax of AAI uptake” value is 0.077 ± 0.03 nmol/mg protein/1min.

Usually IC50 stands for the concentration that gives 50% inhibition. The Km is the concentration of substrate that gives half-maximal velocity.
